Source: US11492335B2, “Aryl or heteroaryl triazolone derivatives or salts thereof, or pharmaceutical compositions comprising the same” (YUHAN CORPORATION, priority 2018, dated 2022)
Structures can show the parent of a compound that is named as a salt. Where two headings read alike, the source gives them in different places.

Experiments:
Format in all cases: biochemical
[1] = target: T1, recombinant human MAO-A (monoamine oxidase-A) (Homo sapiens, UniProt P21397); assay: Activity on recombinant human MAO-A, Amplex Red method, 0.5 mM tyramine substrate; conditions: read-out: Inhibitory Activity (IC50, nM) MAO-A
T1 construct: purchased Sigma-Aldrich
T1 sequence (P21397 1-527): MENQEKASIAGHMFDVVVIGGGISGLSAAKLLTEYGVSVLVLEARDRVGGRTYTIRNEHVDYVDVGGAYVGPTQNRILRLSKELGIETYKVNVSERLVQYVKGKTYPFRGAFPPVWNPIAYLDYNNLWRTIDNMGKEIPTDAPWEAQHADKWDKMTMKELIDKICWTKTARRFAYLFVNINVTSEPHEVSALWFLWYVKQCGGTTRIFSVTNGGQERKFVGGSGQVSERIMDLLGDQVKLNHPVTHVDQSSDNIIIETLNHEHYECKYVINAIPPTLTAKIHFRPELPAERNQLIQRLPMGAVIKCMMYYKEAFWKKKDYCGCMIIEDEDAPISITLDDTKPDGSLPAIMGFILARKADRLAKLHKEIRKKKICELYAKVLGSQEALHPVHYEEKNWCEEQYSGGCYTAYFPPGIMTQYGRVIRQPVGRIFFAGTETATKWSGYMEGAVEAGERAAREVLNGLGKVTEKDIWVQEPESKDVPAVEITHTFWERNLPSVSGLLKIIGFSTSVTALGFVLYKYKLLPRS
Protocol: (§1) The compounds according to the present technology were evaluated in terms of activity on recombinant human VAP-1 (R&D systems) by measuring the level of hydrogen peroxide in horseradish peroxidase (HRP)-coupled reaction using Amplex Red Hydrogen Peroxide Assay Kit (Molecular Probes, Invitrogen, USA). The experiment was carried out at room temperature using benzylamine as a substrate. In the HRP-coupled reaction, hydrogen peroxide oxidation of 10-acetyl-3,7-dihydroxyphenoxazine (Amplex Red reagent) produces resorufin, which is a highly fluorescent compound. Briefly, the test compound was dissolved in dimethyl sulfoxide (DMSO) at a concentration of 20 mM. The dose-response assessment was made by 1:3 serial dilution in DMSO, thereby creating an 8 point curve. The concentration of the upper part was controlled according to the efficacy of the compounds, followed by dilution with a reaction buffer solution to obtain a final DMSO concentration less than 1%. To each well of a 96 black well plate, human VAP-1 purified in 50 mM sodium phosphate buffer solution (pH7.4) was added. The test compounds dissolved in DMSO were incubated with the human VAP-1 enzymes at 37° C. for 30 minutes. After 30-minute incubation, each well is added with a reaction mixture containing 200 uM Amplex Red reagent prepared from 50 mM sodium phosphate buffer solution (pH 7.4), 1 mM benzylamine, and 1 U/mL HRP. Fluorescence intensity was measured at several time points during 1-2 hours using a microplate reader (Flexstation3, Molecular Devices) under the wavelength condition exciting at 544 nm and reading the emission at 590 nm. The inhibitory effect of the compounds was measured as a decrease (%) in the signal rate as compared to the control group without any inhibitor (only diluted DMSO). Data was fixed to a logistic model with four variables and IC50 value was calculated using GraphPad Prism program.
(§2) In addition, the compounds according to the present technology were evaluated in terms of activity on a recombinant human MAO-A (monoamine oxidase-A, Sigma-Aldrich) and a recombinant human MAO-B (monoamine oxidase-B, Sigma-Aldrich) by using as substrates, 0.5 mM tyramine and 1 mM benzylamine, respectively, with a method similar to the activity evaluation method for recombinant human VAP-1. The compounds according to the present technology were also evaluated in terms of activity on a recombinant human DAO (diamine oxidase, R&D systems) by using as a substrate 1 mM putrescine with a method similar to the activity evaluation method for recombinant human VAP-1.

[2] = target: T2, recombinant human MAO-B (monoamine oxidase-B) (Homo sapiens, UniProt P27338); assay: Activity on recombinant human MAO-B, Amplex Red method, 1 mM benzylamine substrate; conditions: read-out: Inhibitory Activity (IC50, nM) MAO-B
T2 construct: purchased Sigma-Aldrich
T2 sequence (P27338 1-520): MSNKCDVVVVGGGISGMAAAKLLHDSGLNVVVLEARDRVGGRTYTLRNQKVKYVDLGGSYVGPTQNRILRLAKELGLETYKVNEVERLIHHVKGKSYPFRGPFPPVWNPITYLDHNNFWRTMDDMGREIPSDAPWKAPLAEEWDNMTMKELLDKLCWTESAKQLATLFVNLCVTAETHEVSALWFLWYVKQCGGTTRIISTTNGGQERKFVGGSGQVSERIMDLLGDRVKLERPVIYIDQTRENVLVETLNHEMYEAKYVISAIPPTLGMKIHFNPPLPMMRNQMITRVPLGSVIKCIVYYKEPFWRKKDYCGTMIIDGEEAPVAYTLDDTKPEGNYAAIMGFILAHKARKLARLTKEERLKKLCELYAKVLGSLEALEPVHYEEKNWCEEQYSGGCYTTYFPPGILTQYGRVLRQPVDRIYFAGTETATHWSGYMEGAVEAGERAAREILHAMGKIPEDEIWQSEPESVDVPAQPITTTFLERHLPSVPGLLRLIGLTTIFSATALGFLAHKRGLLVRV
Protocol: as §1, §2

[3] = target: T3, recombinant human VAP-1 (Homo sapiens, UniProt Q16853); assay: Activity on recombinant human VAP-1, Amplex Red HRP-coupled hydrogen peroxide assay, benzylamine substrate; conditions: recombinant human VAP-1, benzylamine substrate, read-out: Inhibitory Activity (IC50, nM) human VAP-1
T3 construct: purchased R&D systems
T3 sequence (Q16853 1-763): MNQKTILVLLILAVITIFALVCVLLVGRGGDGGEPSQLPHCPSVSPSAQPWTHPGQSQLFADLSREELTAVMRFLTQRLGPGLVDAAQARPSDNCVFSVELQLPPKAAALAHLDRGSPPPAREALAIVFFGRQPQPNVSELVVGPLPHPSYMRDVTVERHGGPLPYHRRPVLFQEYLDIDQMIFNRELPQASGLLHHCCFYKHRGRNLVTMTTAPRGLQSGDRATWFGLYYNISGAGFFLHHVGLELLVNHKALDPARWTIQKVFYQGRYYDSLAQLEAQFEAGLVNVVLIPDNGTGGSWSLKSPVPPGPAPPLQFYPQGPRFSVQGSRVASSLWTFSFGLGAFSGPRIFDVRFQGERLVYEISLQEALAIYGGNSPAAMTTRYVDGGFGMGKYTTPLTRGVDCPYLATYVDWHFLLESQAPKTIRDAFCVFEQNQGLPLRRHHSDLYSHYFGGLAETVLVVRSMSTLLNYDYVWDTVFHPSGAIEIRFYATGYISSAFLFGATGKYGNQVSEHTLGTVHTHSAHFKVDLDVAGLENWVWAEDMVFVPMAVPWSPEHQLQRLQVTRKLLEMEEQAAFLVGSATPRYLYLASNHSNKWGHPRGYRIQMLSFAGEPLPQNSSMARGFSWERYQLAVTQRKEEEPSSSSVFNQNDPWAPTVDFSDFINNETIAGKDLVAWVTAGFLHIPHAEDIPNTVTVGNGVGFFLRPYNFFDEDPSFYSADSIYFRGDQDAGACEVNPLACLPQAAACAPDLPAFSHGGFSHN
Outline: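 H2O2 generation from 1 mM benzylamine was coupled via 1 U/mL HRP to 200 uM Amplex Red; inhibitors, serially diluted 1:3 over 8 points with under 1% final DMSO, had been preincubated 30 min at 37 °C. IC50 from percentage drop in rate.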

[4] = target: T4, recombinant human DAO (diamine oxidase) (Homo sapiens, UniProt P19801); assay: Activity on recombinant human DAO, Amplex Red method, 1 mM putrescine substrate; conditions: recombinant human DAO, read-out: Inhibitory Activity (IC50, nM) DAO
T4 construct: purchased R&D systems
T4 sequence (P19801 20-751): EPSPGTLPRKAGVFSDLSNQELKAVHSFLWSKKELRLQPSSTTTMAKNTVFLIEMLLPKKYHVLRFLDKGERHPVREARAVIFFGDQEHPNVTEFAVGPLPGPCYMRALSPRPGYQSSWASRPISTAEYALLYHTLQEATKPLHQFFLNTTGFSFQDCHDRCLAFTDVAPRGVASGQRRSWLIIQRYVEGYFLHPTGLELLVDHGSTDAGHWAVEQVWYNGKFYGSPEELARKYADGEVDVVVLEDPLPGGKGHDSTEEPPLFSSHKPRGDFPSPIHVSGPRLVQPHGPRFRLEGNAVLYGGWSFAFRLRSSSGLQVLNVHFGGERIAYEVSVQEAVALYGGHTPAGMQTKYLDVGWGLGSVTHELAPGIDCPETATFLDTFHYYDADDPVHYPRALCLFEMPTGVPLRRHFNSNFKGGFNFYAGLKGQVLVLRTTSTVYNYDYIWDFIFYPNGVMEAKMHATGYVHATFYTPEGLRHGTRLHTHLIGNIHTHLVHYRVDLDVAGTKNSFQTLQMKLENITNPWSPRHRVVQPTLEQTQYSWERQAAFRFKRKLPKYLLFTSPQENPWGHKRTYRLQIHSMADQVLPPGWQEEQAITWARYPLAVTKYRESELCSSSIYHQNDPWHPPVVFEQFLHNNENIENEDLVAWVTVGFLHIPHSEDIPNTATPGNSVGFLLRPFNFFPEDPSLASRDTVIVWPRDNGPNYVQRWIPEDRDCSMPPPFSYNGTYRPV
Outline: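 Inhibition of recombinant human DAO (diamine oxidase, R&D systems) was assessed with the Amplex Red Hydrogen Peroxide Assay Kit. Hydrogen peroxide produced from 1 mM putrescine was detected through an HRP-coupled reaction that converts Amplex Red into fluorescent resorufin, read at 544 nm excitation and 590 nm emission. IC50 values came from four-parameter logistic fits in GraphPad Prism.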

[5] = 1 mM putrescine, * = between 10 and 100 nM, ** = between 300 and 1000 nM

SMILES | IC50 ([1]; 0.5 mM tyramine) [nM] | IC50 ([2]; 1 mM benzylamine) [nM] | IC50 ([3]; 30 min preincubation at 37° C.) [nM] | IC50 [4, 5] [nM] | IC50 ([1]; 0.5 mM tyramine substrate) [nM] | IC50 ([2]; 1 mM benzylamine substrate) [nM] | IC50 [3] [nM] | IC50 ([4]; 1 mM putrescine substrate) [nM]
Cc1cc(-n2cnn(C/C(=C/F)CN)c2=O)cnc1-c1ccc2sc(N)nc2c1 [Example 118, 4-[6-(2-amino-1,3-benzothiazol-5-yl)-5-methylpyridin-3-yl]-2-[(2E)-2-(aminomethyl)-3-fluoroprop-2-en-1-yl]-2,4-dihydro-3H-1,2,4-triazol-3-one hydrochloride] | > 100000 | 3040 | 0.34 | 1.7 |  |  |  | 
NC/C(=C\F)Cn1ncn(-c2ccc(OCc3ccccc3)cc2)c1=O [Example 8, 2-[(2E)-2-(aminomethyl)-3-fluoroprop-2-en-1-yl]-4-[4-(benzyloxy)phenyl]-2,4-dihydro-3H-1,2,4-triazol-3-one hydrochloride] | 54000 | 10 | 0.6 | 38 |  |  |  | 
NC/C(=C\F)Cn1ncn(-c2cccc(-c3ccc4nonc4c3)c2)c1=O [Example 96, 2-[(2E)-2-(aminomethyl)-3-fluoroprop-2-en-1-yl]-4-[3-(2,1,3-benzooxadiazol-5-yl)phenyl]-2,4-dihydro-3H-1,2,4-triazol-3-one hydrochloride] | > 100000 | 390 | 0.51 | < 100 |  |  |  | 
NC/C(=C\F)Cn1ncn(-c2cccc(-c3ccc(-c4noc(C5CC5)n4)cc3)c2)c1=O [Example 63, 2-[(2E)-2-(aminomethyl)-3-fluoroprop-2-en-1-yl]-4-[4′-(5-cyclopropyl-1,2,4-oxadiazol-3-yl)biphenyl-3-yl]-2,4-dihydro-3H-1,2,4-triazol-3-one hydrochloride] | > 100000 | > 10000 | 1 | < 30 |  |  |  | 
NC/C(=C\F)Cn1ncn(-c2cccc(-c3cc4ccccc4s3)c2)c1=O [Example 101, 2-[(2E)-2-(aminomethyl)-3-fluoroprop-2-en-1-yl]-4-[3-(1-benzothiophen-2-yl)phenyl]-2,4-dihydro-3H-1,2,4-triazol-3-one hydrochloride] | 58000 | 300 | 0.9 | 34 |  |  |  | 

Other lines, results leading:

IC50 ([1]; 0.5 mM tyramine) [nM] | IC50 ([2]; 1 mM benzylamine) [nM] | IC50 ([3]; 30 min preincubation at 37° C.) [nM] | IC50 [4, 5] [nM] | IC50 ([1]; 0.5 mM tyramine substrate) [nM] | IC50 ([2]; 1 mM benzylamine substrate) [nM] | IC50 [3] [nM] | IC50 ([4]; 1 mM putrescine substrate) [nM] | SMILES
> 100000 | > 10000 | 0.7 | 17000 |  |  |  |  | Cc1cc(-c2ccc(C(=O)N3CCOCC3)cc2)cnc1-n1cnn(C/C(=C/F)CN)c1=O [Example 146, 2-[(2E)-2-(aminomethyl)-3-fluoroprop-2-en-1-yl]-4-{3-methyl-5-[4-(morpholin-4-ylcarbonyl)phenyl]pyridin-2-yl}-2,4-dihydro-3H-1,2,4-triazol-3-one hydrochloride]
 |  |  |  | > 100000 | 2000 | 0.4 | 8 | NC/C(=C\F)Cn1ncn(-c2cccc(C#Cc3ccc(N4CCOCC4)nc3)n2)c1=O [Example 249, 2-[(E)-2-(aminomethyl)-3-fluoro-allyl]-4-[6-[2-(6-morpholino-3-pyridyl)ethynyl]-2-pyridyl]-1,2,4-triazol-3-one]
> 100000 | > 10000 | 0.89 | < 100 |  |  |  |  | Cc1cc(-c2ccc(N3CCOCC3)nc2)ncc1-n1cnn(C/C(=C/F)CN)c1=O [Example 124, 2-[(2E)-2-(aminomethyl)-3-fluoroprop-2-en-1-yl]-4-[4-methyl-6′-(morpholin-4-yl)-2,3′-bipyridin-5-yl]-2,4-dihydro-3H-1,2,4-triazol-3-one]
